Experimental data as given in patent EP1792618A1, “R-mirtazapine for the treatment of pain” (Freynhagen, Rainer, priority 2005, dated 2007).

Columns and labels:
acute thermal pain = experiment: Plantar test (radiant heat, Hargreaves): paw withdrawal latency after intrathecal injection; format: in vivo, Male Wistar rats; conditions: for Paw withdrawal latencies: 240 minutes after injection, mean ± sem, vehicle 11.2 ± 0.24 s, cut-off 20 sec; for overall effect on acute thermal pain over the dose range tested: 0.001 to 1 mg/kg intrathecal; for time after injection of the maximum of pro- or antinociception: intrathecal injection
Description: The pro- or antinociceptive properties of (+/-)-mirtazapine and its enantiomers R(-)-mirtazapine and S(+)mirtazapine, respectively, were analyzed in acute thermal pain (Hargreaves et al., Pain, 32 (1988) 77-88). Male Wistar rats weighing 350-400 g (housed three per cage, access to foot and water ad libitum, room maintained at 22°C ± 0,5°C and on a 12:12 light- dark cycle) were anesthetized with intraperitoneal (i.p.) injection of pentobarbital (60 mg/kg i.p.). The rats were implanted with polyethylene catheters (inner diameter 0.28 mm, outer diameter 0.61 mm), which were advanced from the cisterna magna to the rostral edge of the lumbar enlargement as described before (Muth-Selbach et al., Anesthesiology, 101 (2004) 753-8; Ahmadi et al., Science, 300, (2003) 2094-2097; Zeilhofer et al., J Neurosci 20 (2000) 4922-9). Rats with impaired motor function after catheter implantation were excluded from the study. Paw withdrawal latencies were tested 6-10 days after surgery at all times in the same air conditioned room. The lateral plantar surface of both hind paws was exposed to a defined radiant heat stimulus through a transparent perspex surface (Plantar Test, Hugo Basile Inc., Italy, Comerio) and paw withdrawal latencies were recorded (Hargreaves et al., op.cit.). The animal is unrestrained and unhandled during experiments. When the rat feels pain and withdraws its paw, the sudden drop of reflected radiation switches off the I.R. source and stops the reaction time counter so that the withdrawal latency to the nearest 0.1 s is determined. Paw withdrawal latencies of both hind paws were determined from 4 independent measurements for each time point. A cut-off time of 20 sec was set to avoid tissue damage.
Behavior as described above was tested before and 120, 240 min and 24 hours after application of either substance. In order to find the maximum effect over time, groups of 4 animals were tested before and 30, 60, 120, 180, 240 min and 24 hours after application of 0.1 mg/kg (+/-)-mirtazapine.
(+/-)-Mirtazapine, R(-)-mirtazapine, S(+)mirtazapine or vehicle (0.9% NaCl) were applied to the cerebrospinal fluid via intrathecal catheters in a total volume of 10 µl. Rats were randomly assigned to the different treatment groups consisting of 6 to 9 rats each. All behavioral observations were performed in a standardized blinded fashion.
After the behavioral tests, rats were sacrificed by a lethal dose of pentobarbital i.p.. Proper position of the catheter tip was verified after laminectomy and methylene blue injection through the catheter. All behavioral tests were performed with permission of the German authorities concerned with the law on experiments involving animals and were in accordance with the guidelines of the International Association for the Study of Pain.
(+/-)-Mirtazapine (1, 2, 3, 4, 10, 14b-Hexahydro-2-methyl-pyrazino-[2, 1-a] pyrido [2, 3-c] [2] benzazepin, free base), R(-)-mirtazapine and S(+)-mirtazapine maleate salt were generously donated by N.V. Organon, Oss (The Netherlands) and were of the highest quality available. All chemicals were dissolved in 0.9 % NaCl and stored in aliquots at - 70°C. Fresh dilutions were made with 0.9 % NaCl on every experimental day.
Group data are presented as mean + standard error of the mean(sem). Withdrawal latencies in the different treatment groups were analyzed by analysis of variance (repeated measurements) followed by LSD post hoc tests (SAS Software System). P ≤ 0.05 was assumed significant. In detail, for each dose (i.e. 1, 0.1, 0.01 and 0.001 mg/kg) twelve comparisons were made at five time points.

thermal pain = conditions: 3-30 mg/kg intraperitoneally, rats; cited from earlier work
[1] = tested on: acute nociceptive responses; conditions: rats; cited from earlier work
[2] = tested on: hypothermic response to a 5-HT1-agonist; conditions: normal rats, chronic administration; compared with one of the enantiomers alone; cited from earlier work
neuropathic pain = conditions: chronic constriction injury model, rats; cited from earlier work
[3] = tested on: α2-adrenergic autoreceptors; conditions: compared with R(-)-mirtazapine; cited from earlier work
[4] = 0.001 mg/kg intrathecal (lowest dose)
[5] = 0.01 mg/kg intrathecal, time points 120, 240 minutes, 24 hours as stated per substance
[6] = 0.1 mg/kg intrathecal, time points 120, 240 minutes, 24 hours as stated per substance
[7] = 1 mg/kg intrathecal, time points 120, 240 minutes, 24 hours as stated per substance

For CN1CCN2c3ncccc3Cc3ccccc3[C@@H]2C1 [R(-)-mirtazapine], the “pro- or antinociceptive effect” value (acute thermal pain; [4]) was “neither pro- nor antinociceptive”, the Paw withdrawal latencies (acute thermal pain; 0.001 mg/kg intrathecal) was 11.3 ± 0.9 s and the Paw withdrawal latencies (acute thermal pain; 0.01 mg/kg intrathecal) was 15.6 ± 0.6 s. The “pro- or antinociceptive effect” value (acute thermal pain; [5]) was “antinociceptive”, the Paw withdrawal latencies (acute thermal pain; 0.1 mg/kg intrathecal) was 13.8 ± 0.4 s and the “pro- or antinociceptive effect” value (acute thermal pain; [6]) was “antinociceptive”. For the same compound, the Paw withdrawal latencies (acute thermal pain; 1 mg/kg intrathecal) was 13.5 ± 0.5 s, the “pro- or antinociceptive effect” value (acute thermal pain; [7]) was “antinociceptive” and the “overall effect on acute thermal pain over the dose range tested” value (from here on “overall effect … over the dose range tested”) (acute thermal pain) was “only elicited antinociceptive effects”. The “time after injection of the maximum of pro- or antinociception” value (“time after injection” below) (acute thermal pain) was 240 min.
In the case of CN1CCN2c3ncccc3Cc3ccccc3C2C1 (racemic) [(+/-)-mirtazapine, 1,2,3,4, 10, 14b-Hexahydro-2-methyl-pyrazino-[2,1-a] pyrido [2,3-c] [2] benzazepin], the “antinociceptive activity in thermal pain (hot plate)” value (thermal pain) is listed as “exhibited antinociceptive activity”, the “acute nociceptive responses in the tail flick test” value [1] is listed as “did not affect” and the “hypothermic response to a 5-HT1-agonist” value [2] is listed as “potentiated”. For the same compound, the mechanical allodynia (neuropathic pain) was “not”, the mechanical hyperalgesia (neuropathic pain) was “significantly attenuated” and the thermal hyperalgesia (neuropathic pain) was “significantly attenuated”. For the same compound, the “pro- or antinociceptive effect” value (acute thermal pain; [4]) was “neither pro- nor antinociceptive”, the Paw withdrawal latencies (acute thermal pain; 0.001 mg/kg intrathecal) was 11.5 ± 0.9 s and the Paw withdrawal latencies (acute thermal pain; 0.01 mg/kg intrathecal) was 14.5 ± 1.0 s. The “pro- or antinociceptive effect” value (acute thermal pain; [5]) was “antinociceptive”, the Paw withdrawal latencies (acute thermal pain; 0.1 mg/kg intrathecal) was 14.4 ± 0.3 s and the “pro- or antinociceptive effect” value (acute thermal pain; [6]) was “antinociceptive”. The Paw withdrawal latencies (acute thermal pain; 1 mg/kg intrathecal) was 6.9 ± 0.4 s, the “pro- or antinociceptive effect” value (acute thermal pain; [7]) was “profound pronociceptive effect” and the “overall effect … over the dose range tested” value (acute thermal pain) was “dose-dependently exerted pro- and- antinociceptive activity”. For the same compound, the “time after injection” value (acute thermal pain) was 240 min.
For CN1CCN2c3ncccc3Cc3ccccc3[C@H]2C1 [S(+)-mirtazapine], the “potency as blocker of α2-adrenergic autoreceptors” value [3] is given as “more potent blocker”, the “pro- or antinociceptive effect” value (acute thermal pain; [4]) is given as “neither pro- nor antinociceptive” and the Paw withdrawal latencies (acute thermal pain; 0.001 mg/kg intrathecal) is given as 8.7 ± 0.8 s. For the same compound, the Paw withdrawal latencies (acute thermal pain; 0.01 mg/kg intrathecal) was 8.4 ± 1.1 s, the “pro- or antinociceptive effect” value (acute thermal pain; [5]) was “pronociceptive” and the Paw withdrawal latencies (acute thermal pain; 0.1 mg/kg intrathecal) was 8.1 ± 1.0 s. For the same compound, the “pro- or antinociceptive effect” value (acute thermal pain; [6]) was “pronociceptive”, the Paw withdrawal latencies (acute thermal pain; 1 mg/kg intrathecal) was 7.4 ± 0.4 s and the “pro- or antinociceptive effect” value (acute thermal pain; [7]) was “pronociceptive”. The “overall effect … over the dose range tested” value (acute thermal pain) was “exclusively pronociceptive” and the “time after injection” value (acute thermal pain) was 240 min.
